Test results as given in patent US11530181B2, “IL-6 inhibitors and methods of treatment” (University of Florida Research Foundation, Incorporated, priority 2018, dated 2022).
One block for each compound: values may come before it.

Tests used:
[1] = test system: SUM159 breast cancer cell line; experiment: MTT cell viability assay, SUM159; format: cell-based, human; details: for inhibitory effect compared to parent compound LLM4: SUM159, 25 μM, 48 hours
Description: (§1) Human breast cancer cell lines MCF7, MDA-MB-231 and SUM159 were maintained in Dulbecco's modified Eagle medium (DMEM). Human pancreatic cancer cell line BxPC-3 was maintained in RPMI 1640 medium. Human pancreatic cancer cell line Capan-1 was maintained in Iscove's Modified Dulbecco's Medium (IMEM). All media were supplemented with 10% FBS and 1% penicillin/streptomycin, and cells were incubated in a humidified 37° C. incubator with 5% CO2. PE/CA-PJ49 cell line was purchased from external sources and maintained according to manufacturer's protocol.
(§2) Cell viability was evaluated by using the MTT assay in triple replicates in one experiment and repeated for three times. Cancer cells were seeded in 96-well plates at a density of 3,000 cells per well. The cells were incubated at 37° C. for a period of 24 hours. Escalating concentrations of IL-6/gp130 inhibitors were added in triplicate to the plates in the presence of 10% FBS. After incubation for 48 or 72 hours, a stock solution of MTT (0.5 mg/ml) was then added to each well containing the treated cells, followed by incubation at 37° C. for 3 h. After removal of medium, the MTT dye was dissolved with spectrophotometric grade DMSO and the absorbance was read at 570 nm. The IC50 value is determined by interpolation based on the absorbance value halfway between positive and negative controls.

[2] = test system: BxPC-3 pancreatic cancer cell line; experiment: MTT cell viability assay, BxPC-3; format: cell-based, human; details: for IC50: Homo sapiens, BxPC-3, Table 7; for inhibitory effect compared to parent compound LLM4: BxPC-3, 25 μM, 48 hours
Description: as §1
as §2, with “controls. In the experiment of LLM4 showing higher efficacy in cancer cells with higher levels of IL-6, instead of using medium with 10% FBS, DMEM with 0% FBS was used in order to eliminate the influence of trace amounts of growth factors and cytokines in FBS.” for “controls.”

PE/CA-PJ49 cell line = experiment: Inhibitory activity in PTPRD mutant cell line PE/CA-PJ49; format: cell-based; details: PE/CA-PJ49, 48 h
Description: as §1
as §2, with “controls. In the experiment of LLM4 showing higher efficacy in cancer cells with higher levels of IL-6, instead of using medium with 10% FBS, DMEM with 0% FBS was used in order to eliminate the influence of trace amounts of growth factors and cytokines in FBS.” for “controls.”
Protein tyrosine […] receptor type D (PTPRD) is reported to serve as a tumor suppressor in various human cancers [Peyser et. al, PLoS One (2015) 10(8)]. PTPRD mutation is also known to be associated with increased STAT3 expression [Peyser et. al, PLoS One (2015) 10(8)]. Table 8 captures the inhibitory activities of various compounds in the PTPRD mutant cell line, PE/CA-PJ49.

[3] = test system: multiple myeloma cell line U266; experiment: Cell viability assay, U266; format: cell-based, human
Description: as §2, with “controls. In the experiment of LLM4 showing higher efficacy in cancer cells with higher levels of IL-6, instead of using medium with 10% FBS, DMEM with 0% FBS was used in order to eliminate the influence of trace amounts of growth factors and cytokines in FBS.” for “controls.”
It was reported in multiple myeloma cell line U266 that IL-6 is also elevated and of great importance for cancer progression [Jernberg W, Pettersson M, Carlsson M, et al. Increase in interleukin 6 (IL-6) and IL-6 receptor expression in a human multiple myeloma cell line, U-266, during long-term in vitro culture and the development of a possible autocrine IL-6 loop 1. Leukemia. 1992, 4, 310-318]. These novel IL-6/gp130 inhibitors were tested in U266 cells at a concentration of 25 μM for an incubation time of 48 and 72 hours. MDL16 and LLM4 were used as control compounds.

gp130-D1-D3 = molecular target: T1, gp130-D1-D3 (Homo sapiens, UniProt P40189); experiment: SPR direct binding to immobilized gp130-D1-D3 (CM5 chip); details: for Kd: SPR, gp130-D1-D3, linear regression at low concentrations, 25% Rmax; for ΔGexp: experimental binding energy from SPR KD
T1 construct: residues 1-301, the numbering system is based on PDB 3L5H, which is the mature form of gp130; tandem TFH purification tag (includes FLAG, as purified on anti-FLAG M2 agarose) (C); made in house; host or cells: Hi5 insect cells (baculovirus; virus generated in sf9)
T1 sequence (P40189 23-323): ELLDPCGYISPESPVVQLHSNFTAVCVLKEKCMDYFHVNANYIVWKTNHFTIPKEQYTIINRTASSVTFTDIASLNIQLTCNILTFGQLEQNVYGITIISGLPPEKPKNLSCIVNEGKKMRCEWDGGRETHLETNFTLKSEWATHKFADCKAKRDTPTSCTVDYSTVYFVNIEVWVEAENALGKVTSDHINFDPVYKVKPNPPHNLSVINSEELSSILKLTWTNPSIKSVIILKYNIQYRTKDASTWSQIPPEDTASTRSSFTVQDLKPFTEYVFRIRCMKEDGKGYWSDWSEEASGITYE

[4] = test system: IL-6 induced STAT3 phosphorylation; experiment: Western blot, IL-6 induced STAT3 phosphorylation in MCF7; format: cell-based, human; details: MCF7, 1-4 μM, 5 h, IL-6 50 ng/ml
Description: Cells were harvested and lysed in cold radioimmunoprecipitation assay (RIPA) lysis buffer containing proteasome inhibitor cocktail and phosphatase inhibitor cocktail. The protein concentrations were determined using the BCA Protein Assay kit. After adding the loading buffer and boiling at 95° C. for 10 minutes, equivalent amounts of proteins were loaded on and separated by SDS-PAGE, and then were transferred to PVDF membranes. Membranes were probed with primary antibodies (1:1000) against phospho-STAT3 (Tyr705), STAT3, phospho-STAT1 (Tyr701), STAT1, phospho-STAT6 (Tyr 641), STAT6, and GAPDH, respectively, and horseradish peroxidase (HRP)-conjugated secondary antibody (1:10000) (Cell Signaling Technology, Beverly, Mass.). Membranes were analyzed using Enhanced Chemiluminescence Plus reagents and either scanned with the Storm Scanner (Amersham Pharmacia Biotech, Inc., Piscataway, N.J.) or imaged with ChemiDoc MP imaging system (Bio-Rad, Hercules, Calif.). For cytokine induction of STAT3 phosphorylation, MCF-7 breast cancer cells were seeded in 10 cm plates (1 million cells per plate) and allowed to adhere overnight followed by serum-starvation. […] After designated hours, LLM-418 treated and untreated cells were stimulated by IL-6, LIF, and OSM (50 ng/mL). The cells were harvested after 30 minutes and analyzed by Western blot.
MCF7 breast cancer cells were seeded in 10 cm plates (1 million cells per plate) and allowed to adhere overnight. The following day, the cells were serum-starved. The cells were then left untreated or treated with LLM4 (5-20 μM). After designated hours, the LLM4 treated and untreated cells were stimulated by IL-6, LIF, OSM, CNTF, CT-1, IL-11, IL-4 or INF-γ (50 ng/ml). The cells were harvested after 30 minutes and analyzed by western blotting.

[5] = molecular target: Extracellular Domain of gp130 (Homo sapiens, UniProt P40189); details: literature value; read-out: reported binding affinity; cited from earlier work
[6] = test system: MDA-MB-231 breast cancer cell line; experiment: MTT cell viability assay, MDA-MB-231; format: cell-based, human; details: MDA-MB-231 (medium IL-6), 48 h, 0% FBS medium
Description: as §1
as §2, with “Escalating concentrations of IL-6/gp130 inhibitors were added in triplicate to the plates in the presence of 10% FBS.” left out, “controls. […]” for “controls.”

[7] = test system: MCF7 breast cancer cell line; experiment: MTT cell viability assay, MCF7; format: cell-based, human; details: MCF7 (low IL-6), 48 h, 0% FBS medium
Description: as §1
as §2, with “Escalating concentrations of IL-6/gp130 inhibitors were added in triplicate to the plates in the presence of 10% FBS.” left out, “controls. […]” for “controls.”

[8] = test system: SUM159 breast cancer cell line; experiment: MTT cell viability assay, SUM159; format: cell-based, human; details: SUM159 (high IL-6), 48 h, 0% FBS medium
[9] = SUM159 human breast cancer cell line, MTT

Extracellular Domain of gp130, sequence (P40189 23-619 limits assumed): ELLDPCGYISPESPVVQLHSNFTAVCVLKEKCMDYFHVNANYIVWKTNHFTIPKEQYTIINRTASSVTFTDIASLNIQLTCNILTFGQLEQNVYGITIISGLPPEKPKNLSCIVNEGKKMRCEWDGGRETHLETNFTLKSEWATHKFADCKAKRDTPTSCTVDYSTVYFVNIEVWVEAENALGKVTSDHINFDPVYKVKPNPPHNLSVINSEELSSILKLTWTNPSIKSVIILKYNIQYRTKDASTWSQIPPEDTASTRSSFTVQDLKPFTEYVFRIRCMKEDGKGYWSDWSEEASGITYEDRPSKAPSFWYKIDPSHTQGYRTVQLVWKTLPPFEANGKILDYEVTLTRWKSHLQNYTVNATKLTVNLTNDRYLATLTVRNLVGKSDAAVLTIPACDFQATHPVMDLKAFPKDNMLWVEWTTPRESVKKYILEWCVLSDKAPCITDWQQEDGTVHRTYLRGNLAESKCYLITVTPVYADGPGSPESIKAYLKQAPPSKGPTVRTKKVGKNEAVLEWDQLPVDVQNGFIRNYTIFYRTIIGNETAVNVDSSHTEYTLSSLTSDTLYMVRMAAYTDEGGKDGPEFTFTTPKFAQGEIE

IC50 ([1]; Homo sapiens, SUM159, Table 7): 4.6 µM
IC50 [2]: 1.8 µM
Compound: Cc1c(-c2ccc(O)cc2)n(Cc2ccc(OCCN3CCCCCC3)cc2)c2ccc(O)cc12 [Bazedoxifene, reference compound]

Compound: CN(C)C(=O)Oc1cccc2c1C(=O)c1cccc(S(N)(=O)=O)c1C2=O [LLL12B]
IC50 (PE/CA-PJ49 cell line): 0.0159 ± 0.00371 µM

IC50 (PE/CA-PJ49 cell line): 0.019 ± 0.00283 µM
Compound: NS(=O)(=O)c1cccc2c1C(=O)c1cccc(O)c1C2=O [LLL12]

Compound: O=C(Nc1cc(F)ccc1-n1cccc1)c1ccc(OCCN2CCCCC2)cc1 [LLM3, N-(5-fluoro-2-(1H-pyrrol-1-yl)phenyl)-4-(2-(piperidin-1-yl)ethoxy)benzamide]
IC50 [1, 9]: 31.4 ± 4.7 µM

Compound: O=C(Nc1cc(F)ccc1-n1cccc1)c1ccc(OCCc2ccccc2)cc1 [LLM5, N-(5-fluoro-2-(1H-pyrrol-1-yl)phenyl)-4-phenethoxybenzamide]
IC50 [1, 9]: 64.4 ± 6.9 µM

Compound: O=C(Nc1cc(F)ccc1-n1cccc1)c1ccc(OCCCCc2ccccc2)cc1 [LLM7, N-(5-fluoro-2-(1H-pyrrol-1-yl)phenyl)-4-(4-phenylbutoxy)benzamide]
IC50 ([1]; Homo sapiens, SUM159, SUM159 human breast cancer cell line, MTT): 58.7 ± 6.3 µM

IC50 ([1]; Homo sapiens, SUM159, SUM159, Table 7): 14 µM
IC50 ([3]; Homo sapiens, U-266, U266, 72 h): 5.4 µM
Kd (gp130-D1-D3): 21.6 µM
ΔGexp (gp130-D1-D3): -6.36 kcal/mol
IC50 [2]: 13 µM
Compound: O=C(Nc1cccc(-c2ccn[nH]2)c1)c1ccc(OCCCN2CCCCC2)cc1 [LLM41, N-(3-(1H-pyrazol-5-yl)phenyl)-4-(3-(piperidin-1-yl)propoxy)benzamide]
inhibitory effect compared to parent compound LLM4 [1]: comparable or slightly better at inhibition
inhibitory effect compared to parent compound LLM4 ([3]; U266, 25 μM, 48 and 72 hours): greater inhibitory effects
inhibition of IL-6 induced STAT3 phosphorylation [4]: inhibited STAT3 phosphorylation stimulated by IL-6 in MCF7 cells in a dose dependent manner
inhibitory effect compared to parent compound LLM4 [2]: comparable or slightly better at inhibition

Compound: O=C(Nc1cccc(-c2ccn[nH]2)c1)c1cccc(OCCN2CCCCC2)c1 [LLM46, N-(3-(1H-pyrazol-5-yl)phenyl)-3-(2-(piperidin-1-yl)ethoxy)benzamide]
inhibitory effect compared to parent compound LLM4 [1]: comparable or slightly better at inhibition
inhibitory effect compared to parent compound LLM4 [2]: comparable or slightly better at inhibition

Compound: O=C(Nc1ccccc1-c1ccn[nH]1)c1ccc(OCCCN2CCCCC2)cc1 [LLM417, N-(2-(1H-pyrazol-5-yl)phenyl)-4-(3-(piperidin-1-yl)propoxy)benzamide]
inhibitory effect compared to parent compound LLM4 [1]: comparable or slightly better at inhibition
inhibitory effect compared to parent compound LLM4 [2]: comparable or slightly better at inhibition

Kd (gp130-D1-D3): 330 µM
ΔGexp (gp130-D1-D3): -4.75 kcal/mol
Compound: CCCCC1=C(C)C(=O)[C@](C)(CN2c3ccccc3[C@]3(O)CCOC23)C1=O (stereo partly drawn) [MDL-A, Madindoline A, reference compound]
Kd [5]: 288 µM

IC50 [6]: 1.22 µM
IC50 [7]: 4.7 µM
IC50 (PE/CA-PJ49 cell line): 0.691 ± 0.064 µM
IC50 [8]: 1.08 µM
Compound: O=C(NNc1nc2cc(F)ccc2n2cccc12)c1cnccn1 [SC144, reference compound]
